From ChEMBL document CHEMBL2073809, “Interrelationship between substrates and inhibitors of human CYP3A and P-glycoprotein” (Pharm Res, 1999)

Experiments:
[1] = molecular target: T1, ATP-dependent translocase ABCB1 (Homo sapiens, UniProt P08183); assay: TP_TRANSPORTER: inhibition of Digoxin transepithelial transport (basal to apical)(Digoxin: 5 uM, 1-hydroxymidazolam: 100 uM) in Caco-2 cells; assay type: functional, cell-based; conditions: caco-2, 100 µM
[2] = molecular target: T1, ATP-dependent translocase ABCB1; assay: TP_TRANSPORTER: transepithelial transport (basal to apical) in MDR1-expressing LLC-PK1 cells; assay type: functional, cell-based; conditions: pig
ABCB1 (P-glycoprotein) [3] = molecular target: T2, ABCB1 (P-glycoprotein) (Homo sapiens, UniProt P08183); assay: TP_TRANSPORTER: inhibition of Digoxin transepithelial transport (basal to apical)(Digoxin: 5 uM, Midazolam: 100 uM) in Caco-2 cells; assay type: functional, cell-based; conditions: Caco-2, probe digoxin
ABCB1 (P-glycoprotein) [4] = molecular target: T2, ABCB1 (P-glycoprotein); assay: TP_TRANSPORTER: inhibition of Digoxin transepithelial transport (basal to apical)(Digoxin: 5 uM, Tamoxifen: 100 uM) in Caco-2 cells; assay type: functional, cell-based; conditions: Caco-2, probe digoxin
ABCB1 (P-glycoprotein) [5] = molecular target: T2, ABCB1 (P-glycoprotein); assay: TP_TRANSPORTER: inhibition of Digoxin transepithelial transport (basal to apical) (Digoxin: 5 uM, S-mephenytoin: 100 uM) in Caco-2 cells; assay type: functional, cell-based; conditions: Caco-2, probe digoxin
ABCB1 (P-glycoprotein) [6] = molecular target: T2, ABCB1 (P-glycoprotein); assay: TP_TRANSPORTER: inhibition of Digoxin transepithelial transport (basal to apical) (Digoxin: 5 uM, Erythromycin: 100 uM) in Caco-2 cells; assay type: functional, cell-based; conditions: Caco-2, probe digoxin
ABCB1 (P-glycoprotein) [7] = molecular target: T2, ABCB1 (P-glycoprotein); assay: TP_TRANSPORTER: inhibition of Digoxin transepithelial transport (basal to apical) (Digoxin: 5 uM, Lovastatin: 100 uM) in Caco-2 cells; assay type: functional, cell-based; conditions: Caco-2, probe digoxin
ABCB1 (P-glycoprotein) [8] = molecular target: T2, ABCB1 (P-glycoprotein); assay: TP_TRANSPORTER: inhibition of Digoxin transepithelial transport (basal to apical)(Digoxin: 5 uM, Terfenadine: 10 uM) in Caco-2 cells; assay type: functional, cell-based; conditions: Caco-2, probe digoxin
ABCB1 (P-glycoprotein) [9] = molecular target: T2, ABCB1 (P-glycoprotein); assay: TP_TRANSPORTER: inhibition of Digoxin transepithelial transport (basal to apical)(Digoxin: 5 uM, 6beta-hydroxycortisol: 100 uM) in Caco-2 cells; assay type: functional, cell-based; conditions: Caco-2, probe digoxin
[10] = molecular target: T3, ATP-dependent translocase ABCB1 (Mus musculus, UniProt P21447); assay: TP_TRANSPORTER: no change in plasma concentration in mdr1a(-/-) mouse; assay type: functional, organism-based; conditions: in vivo
[11] = molecular target: T3, ATP-dependent translocase ABCB1; assay: TP_TRANSPORTER: no change in kidney concentration in mdr1a(-/-) mouse; assay type: functional, organism-based; conditions: in vivo
[12] = molecular target: T3, ATP-dependent translocase ABCB1; assay: TP_TRANSPORTER: no change in liver concentration in mdr1a(-/-) mouse; assay type: functional, organism-based; conditions: in vivo

T3 sequence (P21447 whole entry): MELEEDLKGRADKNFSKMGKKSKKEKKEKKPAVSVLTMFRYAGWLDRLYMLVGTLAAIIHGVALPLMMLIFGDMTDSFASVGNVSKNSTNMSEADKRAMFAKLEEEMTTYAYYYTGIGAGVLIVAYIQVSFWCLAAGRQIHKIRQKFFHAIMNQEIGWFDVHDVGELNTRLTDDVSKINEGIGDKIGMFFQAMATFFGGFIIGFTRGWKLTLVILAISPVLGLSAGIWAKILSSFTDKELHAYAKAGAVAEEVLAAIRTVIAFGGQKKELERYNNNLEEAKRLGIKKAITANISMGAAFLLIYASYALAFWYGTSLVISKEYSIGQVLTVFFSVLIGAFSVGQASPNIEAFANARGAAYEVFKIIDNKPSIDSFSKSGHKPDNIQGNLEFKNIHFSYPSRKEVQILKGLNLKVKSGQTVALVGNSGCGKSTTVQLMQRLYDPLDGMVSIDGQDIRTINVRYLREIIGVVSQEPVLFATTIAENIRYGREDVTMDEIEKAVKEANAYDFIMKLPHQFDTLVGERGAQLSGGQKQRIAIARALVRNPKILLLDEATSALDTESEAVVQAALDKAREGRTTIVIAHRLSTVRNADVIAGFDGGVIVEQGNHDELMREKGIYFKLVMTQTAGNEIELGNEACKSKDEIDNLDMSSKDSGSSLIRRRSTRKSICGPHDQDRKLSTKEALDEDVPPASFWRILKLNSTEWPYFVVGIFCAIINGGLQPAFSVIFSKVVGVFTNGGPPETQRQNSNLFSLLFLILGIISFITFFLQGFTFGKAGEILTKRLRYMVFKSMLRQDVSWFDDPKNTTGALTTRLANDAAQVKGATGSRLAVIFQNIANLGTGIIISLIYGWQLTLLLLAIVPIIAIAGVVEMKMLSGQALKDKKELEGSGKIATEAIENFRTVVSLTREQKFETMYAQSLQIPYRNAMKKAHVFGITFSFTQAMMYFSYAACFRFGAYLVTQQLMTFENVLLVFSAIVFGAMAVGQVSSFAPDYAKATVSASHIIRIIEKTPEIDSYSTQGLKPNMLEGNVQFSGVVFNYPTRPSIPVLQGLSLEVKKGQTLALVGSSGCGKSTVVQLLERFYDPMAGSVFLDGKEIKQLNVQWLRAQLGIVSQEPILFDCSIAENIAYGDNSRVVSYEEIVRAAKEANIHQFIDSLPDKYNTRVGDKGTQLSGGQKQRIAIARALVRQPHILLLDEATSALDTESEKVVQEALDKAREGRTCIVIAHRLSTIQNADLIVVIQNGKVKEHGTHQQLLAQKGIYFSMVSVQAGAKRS
T2 sequence (P08183 whole entry): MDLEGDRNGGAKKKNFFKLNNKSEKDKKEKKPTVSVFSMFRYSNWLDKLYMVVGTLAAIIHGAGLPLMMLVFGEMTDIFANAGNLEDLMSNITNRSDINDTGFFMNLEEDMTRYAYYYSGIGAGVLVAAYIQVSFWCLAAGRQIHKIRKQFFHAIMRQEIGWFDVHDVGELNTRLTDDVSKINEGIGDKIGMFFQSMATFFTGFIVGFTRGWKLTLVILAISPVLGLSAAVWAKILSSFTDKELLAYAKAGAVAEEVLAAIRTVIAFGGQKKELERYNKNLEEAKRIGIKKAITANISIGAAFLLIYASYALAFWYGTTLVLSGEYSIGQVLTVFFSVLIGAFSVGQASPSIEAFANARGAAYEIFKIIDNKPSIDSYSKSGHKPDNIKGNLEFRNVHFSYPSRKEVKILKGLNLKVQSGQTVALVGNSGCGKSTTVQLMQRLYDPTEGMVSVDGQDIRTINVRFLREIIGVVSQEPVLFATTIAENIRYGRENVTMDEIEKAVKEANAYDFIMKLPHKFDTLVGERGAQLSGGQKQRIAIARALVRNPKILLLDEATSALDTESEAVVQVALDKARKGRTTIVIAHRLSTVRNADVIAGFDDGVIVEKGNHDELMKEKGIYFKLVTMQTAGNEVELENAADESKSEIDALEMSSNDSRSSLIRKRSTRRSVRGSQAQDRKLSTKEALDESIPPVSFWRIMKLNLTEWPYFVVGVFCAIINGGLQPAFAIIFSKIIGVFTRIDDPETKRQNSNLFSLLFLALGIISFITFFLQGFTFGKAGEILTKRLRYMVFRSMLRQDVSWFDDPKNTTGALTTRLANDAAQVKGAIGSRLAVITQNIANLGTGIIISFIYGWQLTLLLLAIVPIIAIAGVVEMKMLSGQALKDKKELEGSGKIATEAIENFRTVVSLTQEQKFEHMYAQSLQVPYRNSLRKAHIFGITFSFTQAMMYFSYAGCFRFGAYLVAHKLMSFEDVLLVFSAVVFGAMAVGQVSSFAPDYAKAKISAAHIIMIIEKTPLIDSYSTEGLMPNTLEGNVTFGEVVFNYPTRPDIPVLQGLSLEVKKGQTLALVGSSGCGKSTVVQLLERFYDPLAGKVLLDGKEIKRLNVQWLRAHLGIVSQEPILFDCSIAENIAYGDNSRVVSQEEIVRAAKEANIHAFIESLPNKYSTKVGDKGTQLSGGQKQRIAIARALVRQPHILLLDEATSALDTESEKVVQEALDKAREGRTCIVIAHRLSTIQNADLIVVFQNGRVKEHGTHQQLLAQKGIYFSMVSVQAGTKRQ
T1 sequence (P08183 whole entry): as above

## OCc1ncc2n1-c1ccc(Cl)cc1C(c1ccccc1F)=NC2 [ALPHA-HYDROXY-MIDAZOLAM]
[1]
  Activity: 63

## Cc1ncc2n1-c1ccc(Cl)cc1C(c1ccccc1F)=NC2 [MIDAZOLAM]
[2]
  Activity: is not a substrate [-]
ABCB1 (P-glycoprotein) [3]
  inhibition at 100 µM: 74%

## CC/C(=C(\c1ccccc1)c1ccc(OCCN(C)C)cc1)c1ccccc1 [TAMOXIFEN]
ABCB1 (P-glycoprotein) [4]
  inhibition at 100 µM: 86%

## CC[C@@]1(c2ccccc2)NC(=O)N(C)C1=O
ABCB1 (P-glycoprotein) [5]
  inhibition at 100 µM: 42%

## CC[C@H]1OC(=O)[C@H](C)[C@@H](O[C@H]2C[C@@](C)(OC)[C@@H](O)[C@H](C)O2)[C@H](C)[C@@H](O[C@@H]2O[C@H](C)C[C@H](N(C)C)[C@H]2O)[C@](C)(O)C[C@@H](C)C(=O)[C@H](C)[C@@H](O)[C@]1(C)O [ERYTHROMYCIN]
ABCB1 (P-glycoprotein) [6]
  inhibition at 100 µM: 101%

## CC[C@H](C)C(=O)O[C@H]1C[C@@H](C)C=C2C=C[C@H](C)[C@H](CC[C@@H]3C[C@@H](O)CC(=O)O3)[C@H]21 [LOVASTATIN]
ABCB1 (P-glycoprotein) [7]
  inhibition at 100 µM: 65%

## CC(C)(C)c1ccc(C(O)CCCN2CCC(C(O)(c3ccccc3)c3ccccc3)CC2)cc1 (centres undefined) [TERFENADINE]
ABCB1 (P-glycoprotein) [8]
  inhibition at 10 µM: 112%

## C[C@]12CCC(=O)C=C1[C@H](O)C[C@@H]1[C@@H]2[C@@H](O)C[C@@]2(C)[C@H]1CC[C@]2(O)C(=O)CO
ABCB1 (P-glycoprotein) [9]
  inhibition at 100 µM: 57%

## N=C(N)N1CCc2ccccc2C1 [DEBRISOQUIN]
[2]
  Activity: substrate [+]

## IVERMECTIN
[10]
  Activity: is not a substrate [-]
[11]
  Activity: is not a substrate [-]
[12]
  Activity: is not a substrate [-]

## COC(=O)C1=C(C)NC(C)=C(C(=O)OC)C1c1ccccc1[N+](=O)[O-] [NIFEDIPINE]
[2]
  Activity: is not a substrate [-]
